Measurements published in PMC3362725, “An open-label, phase 1 study evaluating safety, tolerability, and pharmacokinetics of linifanib (ABT-869) in Japanese patients with solid tumors” (Cancer Chemotherapy and Pharmacology, 2012).
Values joined by “and” are separate entries in the source; they are usually repeats but may differ in a detail not shown here. Equal values may be shown once.

Legend:
[1] = design: method as in PMID 19720910; settings: cited from earlier work
solid tumors = assay: Tumor response per RECIST (CT or MRI), phase 1 study; type: in vivo, human (Japanese patients with solid tumors)
Procedure: Baseline evaluations included physical examination, body weight, vital signs, 12-lead electrocardiogram, ECOG PS assessment, pregnancy test, laboratory tests, and multiple-gated acquisition scan/echocardiogram. Tumor response and/or disease progression was assessed by computerized tomography (CT) scan or magnetic resonance imaging (MRI) per RECIST [20] at screening and on Day (D) 1 of every second cycle prior to the subsequent treatment period, until tumor progression or until final visit. Complete response and partial response (PR) were defined according to RECIST [20]; objective response rate (ORR) was defined as the proportion of patients with best response of PR or CR among the study population. Safety assessments included laboratory test results and adverse events (AEs), which were graded according to CTCAE v3 [18] and coded by medical dictionary of regulatory activities (MedDRA) 1.0.

PlGF = assay: Plasma PlGF biomarker (Abbott Architect kits); type: in vivo, human (Japanese patients with solid tumors)
Procedure: Plasma for biomarker analysis was collected before linifanib administration on C1D1, C1D15, C2D1, and at the final visit. Concentration of PlGF was determined using Abbott Architect® kits. The relationship of PlGF levels to outcomes was assessed post hoc. To assess the relationship between PlGF induction and toxicity, patients were grouped into those requiring and not requiring dose interruption during the first 30 days of therapy. Median PlGF increase from baseline to C1D15 was compared as a function of toxicity group. To assess the relationship between PlGF induction and efficacy, patients were segregated into those with progressive disease (PD; N = 6) or stable disease (SD; N = 10) at C6, and PlGF increase from baseline to C1D15 was compared.

HT1080 fibrosarcoma = test system: HT1080 fibrosarcoma; design: method as in PMID 16648571; settings: predicted based on preclinical murine HT1080 fibrosarcoma model; cited from earlier work

Cc1ccc(F)c(NC(=O)Nc2ccc(-c3cccc4[nH]nc(N)c34)cc2)c1 [linifanib, N-(4-(3-amino-1H-indazol-4-yl)phenyl)-N’-(2-fluoro-5-methylphenyl)urea]
patients with Grade 3 hypertension ([1]; non-Japanese Asian patients, recommended phase 2 dose): 8%
recommended phase 2 dose ([1]; prior phase 1 study in non-Japanese): 0.25 mg/kg
ORR (solid tumors; 2 of 18 patients, RECIST): 11.1%
patients with tumor reduction >5% by RECIST (solid tumors; 12/18 patients): 67%
patients with SD for ≥12 weeks (solid tumors; 18 patients): 11
patients with confirmed PR (solid tumors; 18 patients, 0.20 mg/kg (breast cancer) and 0.25 mg/kg (lung cancer)): Two
patients with reduction in summed tumor dimensions of ≥5% (solid tumors; of the 18 patients, cohorts 0.10, 0.20, and 0.25 mg/kg): 12 and 12/18
median duration of response (solid tumors; range 2.8–3.5): 3.2 months
median progression-free survival (PFS) (solid tumors; range 2.8–9.8): 5.7 months
patients who continued linifanib with clinical benefit for ≥48 weeks (solid tumors; sarcoma, breast, lung, thymic cancer, best response SD): Four
induction of PlGF on C1D15 and C2D1 (PlGF; 0.05–0.25 mg/kg once daily): dose-dependent
median (±SD) increase in PlGF from baseline to C1D15 (PlGF; 11 patients with dose interruption in first 30 days): 79.9 (±55.0) pg/mL
PlGF change from baseline to C1D15 as a function of response classification (PlGF; PD (n = 6) versus SD (n = 10) at C6, p = 0.7): No statistically significant difference
median (±SD) increase in PlGF from baseline to C1D15 (PlGF; five patients without dose interruption in first 30 days, ±16.2): 22.8 pg/mL
PlGF concentration at the final visit (PlGF; patients no longer on therapy): returned to near baseline levels
efficacious plasma exposure at steady state (HT1080 fibrosarcoma): ≥ 2700 ng·h/mL
